Measurements reported in ChEMBL document CHEMBL4627350, “Drug repurposing and rediscovery: Design, synthesis and preliminary biological evaluation of 1-arylamino-3-aryloxypropan-2-ols as anti-melanoma agents” (Bioorg Med Chem, 2020).
Active and inactive are the calls of the source. The calls are words filed in the database; no cut-off is given here.

Experiments:
SK-MEL-5 [1] = test: Antiproliferative activity against human SK-MEL-5 cells assessed as cell growth inhibition incubated for 48 hrs by MTT assay; type: functional, cell-based; details: SK-MEL-5, 48 h
SK-MEL-28 [2] = test: Antiproliferative activity against human SK-MEL-28 cells assessed as cell growth inhibition incubated for 48 hrs by MTT assay; type: functional, cell-based; details: SK-MEL-28, 48 h
A-375 [3] = test: Antiproliferative activity against human A375 cells assessed as cell growth inhibition incubated for 48 hrs by MTT assay; type: functional, cell-based; details: A-375, 48 h
SK-MEL-28 [4] = test: Inhibition of colony formation in human SK-MEL-28 cells at 5 to 100 uM supplemented with fresh medium containing compound every 72 hrs for 2 weeks by crystal violet staining based assay; type: functional, cell-based
SK-MEL-28 [5] = test: Cell cycle arrest in human SK-MEL-28 cells assessed as accumulation at G2/M phase at 5 nM after 24 hrs by […] dye staining based fluorescence assay; type: functional
SK-MEL-28 [6] = test: Antimigratory activity against human SK-MEL-28 cells assessed as reduction in cell migration at 1 uM measured after 48 hrs by wound healing assay; type: functional, cell-based
SK-MEL-5 [7] = test: Potency index, ratio of carvedilol IC50 to test compound IC50 for antiproliferative activity against human SK-MEL-5 cells; type: functional
SK-MEL-28 [8] = test: Potency index, ratio of carvedilol IC50 to test compound IC50 for antiproliferative activity against human SK-MEL-28 cells; type: functional
A-375 [9] = test: Potency index, ratio of carvedilol IC50 to test compound IC50 for antiproliferative activity against human A375 cells; type: functional
SK-MEL-28 [10] = test: Cell cycle arrest in human SK-MEL-28 cells assessed as accumulation at G2/M phase after 24 hrs by […] dye staining based fluorescence assay; type: functional
SK-MEL-28 [11] = test: Inhibition of colony formation in human SK-MEL-28 cells at 2 uM supplemented with fresh medium containing compound every 72 hrs for 2 weeks by crystal violet staining based assay; type: functional
SK-MEL-28 [12] = test: Induction of apoptosis in human SK-MEL-28 cells incubated for 24 hrs by Annexin V-FITC/propidium iodide staining based flow cytometric analysis; type: functional, cell-based
Tubulin (Homo sapiens) = Tubulin (Homo sapiens) (UniProt P68371+Q9H4B7+P0DPH7+P68366+Q13509+Q71U36+P04350+Q3ZCM7+P07437+P68363+Q9BQE3+Q6PEY2+Q13885+Q9BVA1+Q9BUF5); test: Inhibition of tubulin in human SK-MEL-28 cells assessed as disruption of microtubule network at 1 to 2 uM by Alexa Fluor 488 and DAPI staining based fluorescence microscopic method; type: cell-based
SK-MEL-5 [13] = test: Antiproliferative activity against human SK-MEL-5 cells assessed as cell growth inhibition at 100 uM incubated for 48 hrs by MTT assay relative to control; type: functional; details: SK-MEL-5, 48 h
SK-MEL-28 [14] = test: Antiproliferative activity against human SK-MEL-28 cells assessed as cell growth inhibition at 100 uM measured after 48 hrs by MTT assay relative to control; type: functional; details: SK-MEL-28, 48 h
A-375 [15] = test: Antiproliferative activity against human A375 cells assessed as cell growth inhibition at 100 uM measured after 48 hrs by MTT assay relative to control; type: functional; details: A-375, 48 h

Row | SMILES | IC50 (SK-MEL-5 [1]) [µM] | IC50 (SK-MEL-28 [2]) [µM] | IC50 (A-375 [3]) [µM] | also measured
1 | COc1ccccc1OCCNC[C@H](O)COc1cccc2[nH]c3ccccc3c12 | 7.04 | 10.5 | 14.7 | 
2 | COc1ccccc1OCCNCCCOc1cccc2[nH]c3ccccc3c12 | 6.18 | 6.66 | 6.88 | 
3 | c1ccc(Nc2cccc(OCCCNCc3ccc(-c4ccccc4)cc3)c2)cc1 | 4.72 | 3.8 | 2.31 | 
4 | c1ccc(N2CCN(CCCOc3cccc4[nH]c5ccccc5c34)CC2)cc1 | 36.9 | 19.2 | 22.6 | 
5 | Cc1ccc2cccc(NCCCOc3cccc4[nH]c5ccccc5c34)c2n1 | 16.4 | 19.8 | 22.3 | 
6 | COc1ccccc1N1CCN(CCCOc2cccc3[nH]c4ccccc4c23)CC1 | 13.7 | 11.4 | 10.8 | 
7 | O[C@@H](CNCc1ccc(-c2ccccc2)cc1)COc1cccc2[nH]c3ccccc3c12 | 2.69 | 4.99 | 5.22 | 
8 | c1ccc(N2CCN(CCCOc3cccc4[nH]c5ccccc5c34)CC2)nc1 | 11.5 | 15.5 | 13.9 | 
9 | c1ccc(-c2ccc(CNCCCOc3cccc4[nH]c5ccccc5c34)cc2)cc1 | 4.28 | 4.39 | 6.59 | 
10 | CC(C)NCC(O)COc1cccc2ccccc12 (stereo unspecified) |  |  |  | inhibition (SK-MEL-28 [4]): Active
11 | COc1cc2c(c(OC)c1OC)-c1ccc(OC)c(=O)cc1[C@@H](NC(C)=O)CC2 |  |  |  | Activity (SK-MEL-28 [5]): Active
12 | COc1ccccc1OCCNCC(O)COc1cccc2ccccc12 (racemic) | 10.1 | 13.5 | 18.9 | 
13 | COc1ccccc1N1CCN(CC(O)COc2cccc3[nH]c4ccccc4c23)CC1 (racemic) | 13.6 | 14.1 | 13.9 | 
14 | OC(COc1cccc2[nH]c3ccccc3c12)CN1CCN(c2ccccc2)CC1 (racemic) | 17 | 18.5 | 16.3 | 
15 | CC(C)NCC(O)COc1ccc(-c2ccccc2)cc1 (racemic) | 12 | 11.9 | 11 | 
16 | OC(CNc1ccc(-c2ccccc2)cc1)COc1cccc2[nH]c3ccccc3c12 (racemic) | 13.9 | 12.5 | 13.5 | 
17 | COc1ccccc1OCCNCC(O)COc1ccc2ccccc2c1 (racemic) | 18.5 | 19.7 | 21.1 | 

Row | SMILES | IC50 (SK-MEL-5 [1]) [µM] | IC50 (SK-MEL-28 [2]) [µM] | IC50 (A-375 [3]) [µM] | also measured
18 | OC(COc1cccc2[nH]c3ccccc3c12)CN1CCN(c2ccccn2)CC1 (racemic) | 26.1 | 24.7 | 31.8 | 
19 | OC(CNCc1ccc(-c2ccccc2)cc1)COc1cccc2[nH]c3ccccc3c12 (racemic) | 3.14 | 3.8 | 5.56 | Activity (SK-MEL-28 [6]): Active; Ratio IC50 (SK-MEL-5 [7]): 15; Ratio IC50 (SK-MEL-28 [8]): 15; Ratio IC50 (A-375 [9]): 15
20 | OC(COc1ccc(-c2ccccc2)cc1)CN1CCN(c2ccccn2)CC1 (racemic) | 21.2 | 25 | 28.2 | 
21 | OC(COc1ccc(-c2ccccc2)cc1)CN1CCN(c2ccccc2)CC1 (racemic) | 12.2 | 15.3 | 14.3 | 
22 | COc1ccccc1OCCNCC(O)COc1ccc(-c2ccccc2)cc1 (racemic) | 5.86 | 6.01 | 8.37 | 
23 | OC(CNCc1ccc(-c2ccccc2)cc1)COc1cccc(Nc2ccccc2)c1 (racemic) | 3.7 | 3.3 | 1.98 | Activity (SK-MEL-28 [10]): Dose-dependent effect; inhibition (INH) (SK-MEL-28 [11]): 100%; Activity (SK-MEL-28 [6]): Active; Activity (SK-MEL-28 [12]): Dose-dependent effect; inhibition (Tubulin (Homo sapiens)): Active
24 | Cc1ccc2cccc(NCC(O)COc3cccc4[nH]c5ccccc5c34)c2n1 (racemic) | 14.5 | 14.2 | 14.1 | 
25 | CC(C)NCC(O)COc1ccc(CC(N)=O)cc1 (stereo unspecified) [ATENOLOL] | > 100 | > 100 | > 100 | inhibition at 100 µM (SK-MEL-5 [13]): 5.2%; inhibition at 100 µM (SK-MEL-28 [14]): 6.9%; inhibition at 100 µM (A-375 [15]): 8.6%
26 | CC(C)NCC(O)COc1ccc(COCCOC(C)C)cc1 (stereo unspecified) [BISOPROLOL] | > 100 | > 100 | > 100 | inhibition at 100 µM (SK-MEL-5 [13]): 14.8%; inhibition at 100 µM (SK-MEL-28 [14]): 6.4%; inhibition at 100 µM (A-375 [15]): 28.3%
27 | CC(C)NCC(O)COc1cccc2[nH]c3ccccc3c12 (stereo unspecified) [CARAZOLOL] | 33.7 | 31.3 | 35.4 | 
28 | COc1ccccc1OCCNCC(O)COc1cccc2[nH]c3ccccc3c12 (stereo unspecified) [CARVEDILOL] | 13.7 | 15.6 | 13 | inhibition (SK-MEL-28 [4]): Active
29 | COC(=O)CCc1ccc(OCC(O)CNC(C)C)cc1 (stereo unspecified) [ESMOLOL] | > 100 | > 100 | > 100 | inhibition at 100 µM (SK-MEL-5 [13]): 31.4%; inhibition at 100 µM (SK-MEL-28 [14]): 25.8%; inhibition at 100 µM (A-375 [15]): 22.8%
30 | CC(CCc1ccccc1)NCC(O)c1ccc(O)c(C(N)=O)c1 (stereo unspecified) [LABETALOL] | > 100 | > 100 | > 100 | inhibition at 100 µM (SK-MEL-5 [13]): 36.2%; inhibition at 100 µM (SK-MEL-28 [14]): 35.6%; inhibition at 100 µM (A-375 [15]): 38.1%
31 | COCCc1ccc(OCC(O)CNC(C)C)cc1 (stereo unspecified) [METOPROLOL] | > 100 | > 100 | > 100 | inhibition at 100 µM (SK-MEL-5 [13]): 38.8%; inhibition at 100 µM (SK-MEL-28 [14]): 30%; inhibition at 100 µM (A-375 [15]): 26.3%
32 | CC(C)NCC(O)c1ccc(NS(C)(=O)=O)cc1 (stereo unspecified) [SOTALOL] | > 100 | > 100 | > 100 | inhibition at 100 µM (SK-MEL-5 [13]): 2.1%; inhibition at 100 µM (SK-MEL-28 [14]): 7.4%; inhibition at 100 µM (A-375 [15]): 15.2%
33 | CC(C)(C)NC[C@H](O)COc1nsnc1N1CCOCC1 [TIMOLOL] | > 100 | > 100 | > 100 | inhibition at 100 µM (SK-MEL-5 [13]): 33.3%; inhibition at 100 µM (SK-MEL-28 [14]): 18.6%; inhibition at 100 µM (A-375 [15]): 22.7%
